# Reference: patent US9283222B2 (priority 2006, dated 2016)
# Target: Recombinant Human Poly(ADP-Ribose) Polymerase (PARP), PARP-1 (Homo sapiens (Human), UniProt P09874)
# Conditions: read-out: PARP-1 (Ki)
# Sequence of Recombinant Human Poly(ADP-Ribose) Polymerase (PARP), PARP-1 (P09874 whole entry): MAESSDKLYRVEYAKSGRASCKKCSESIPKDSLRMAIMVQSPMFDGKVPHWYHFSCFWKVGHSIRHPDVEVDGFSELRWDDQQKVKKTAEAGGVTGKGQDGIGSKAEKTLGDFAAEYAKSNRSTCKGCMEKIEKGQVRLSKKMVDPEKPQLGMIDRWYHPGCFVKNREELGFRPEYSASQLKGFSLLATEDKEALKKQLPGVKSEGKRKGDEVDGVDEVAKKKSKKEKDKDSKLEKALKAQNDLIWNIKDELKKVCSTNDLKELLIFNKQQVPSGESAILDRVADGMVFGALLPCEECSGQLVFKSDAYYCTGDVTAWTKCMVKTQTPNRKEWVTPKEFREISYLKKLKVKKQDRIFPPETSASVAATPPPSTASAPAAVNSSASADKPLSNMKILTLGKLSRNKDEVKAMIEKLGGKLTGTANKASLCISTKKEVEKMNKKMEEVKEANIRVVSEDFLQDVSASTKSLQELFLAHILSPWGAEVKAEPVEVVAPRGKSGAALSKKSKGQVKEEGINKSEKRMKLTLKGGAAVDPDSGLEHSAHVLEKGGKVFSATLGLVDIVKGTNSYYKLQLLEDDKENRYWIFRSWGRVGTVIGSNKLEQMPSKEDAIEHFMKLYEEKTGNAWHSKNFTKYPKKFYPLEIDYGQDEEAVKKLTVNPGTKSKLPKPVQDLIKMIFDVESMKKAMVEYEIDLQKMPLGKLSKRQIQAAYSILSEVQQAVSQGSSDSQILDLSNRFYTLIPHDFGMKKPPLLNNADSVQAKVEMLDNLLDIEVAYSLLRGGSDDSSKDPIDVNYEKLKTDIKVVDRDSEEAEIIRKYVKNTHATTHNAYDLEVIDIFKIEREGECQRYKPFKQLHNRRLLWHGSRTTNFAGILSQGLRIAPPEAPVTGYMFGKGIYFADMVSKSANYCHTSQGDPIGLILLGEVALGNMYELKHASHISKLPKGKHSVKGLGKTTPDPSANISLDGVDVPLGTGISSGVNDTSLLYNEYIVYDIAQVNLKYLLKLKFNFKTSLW
row,SMILES,Ki [nM]
1,"O=C(c1cc(Cc2n[nH]c(=O)c3c2NCCC3)ccc1F)N1CCN(C(=O)N2CCOCC2)CC1 [Example 473, 8-(4-fluoro-3-((4-(morpholin-4-ylcarbonyl)piperazin-1-yl)carbonyl)benzyl)-2,3,4,6-tetrahydropyrido(2,3-d)pyridazin-5(1H)-one]",2

# Same assay, conditions: read-out: PARP-1 (Ki); Table 1; text calls the values EC50s
row,SMILES,Ki [nM]
1,"NC(=O)C1CCCN(C(=O)c2cccc(Cc3n[nH]c(=O)c4c3CCCC4)c2)C1 (centres unmarked) [Example 429, 1-(3-((4-oxo-3,4,5,6,7,8-hexahydrophthalazin-1-yl)methyl)benzoyl)piperidine-3-carboxamide]",19
2,"NC(=O)C1CCN(C(=O)c2cccc(Cc3n[nH]c(=O)c4c3CCCC4)c2)CC1 [Example 430, 1-(3-((4-oxo-3,4,5,6,7,8-hexahydrophthalazin-1-yl)methyl)benzoyl)piperidine-4-carboxamide]",5
3,"O=C(c1cccc(Cc2n[nH]c(=O)c3c2CCCC3)c1)N1CCC(n2c(=O)[nH]c3ccccc32)CC1 [Example 434, 4-(3-((4-(2-oxo-2,3-dihydro-1H-benzimidazol-1-yl)piperidin-1-yl)carbonyl)benzyl)-5,6,7,8-tetrahydrophthalazin-1(2H)-one]",6
4,"CN1CCN(C(=O)c2cccc(Cc3n[nH]c(=O)c4c3CCCC4)c2)CC1 [Example 435, 4-(3-((4-methylpiperazin-1-yl)carbonyl)benzyl)-5,6,7,8-tetrahydrophthalazin-1(2H)-one]",20
5,"CCN1CCN(C(=O)c2cccc(Cc3n[nH]c(=O)c4c3CCCC4)c2)CC1 [Example 436, 4-(3-((4-ethylpiperazin-1-yl)carbonyl)benzyl)-5,6,7,8-tetrahydrophthalazin-1(2H)-one]",10
6,"O=CN1CCN(C(=O)c2cccc(Cc3n[nH]c(=O)c4c3CCCC4)c2)CC1 [Example 437, 4-(3-((4-oxo-3,4,5,6,7,8-hexahydrophthalazin-1-yl)methyl)benzoyl)piperazine-1-carbaldehyde]",4
7,"CC(=O)N1CCN(C(=O)c2cccc(Cc3n[nH]c(=O)c4c3CCCC4)c2)CC1 [Example 438, 4-(3-((4-acetylpiperazin-1-yl)carbonyl)benzyl)-5,6,7,8-tetrahydrophthalazin-1(2H)-one]",3
8,"O=C(c1cccc(Cc2n[nH]c(=O)c3c2CCCC3)c1)N1CCN(CCO)CC1 [Example 439, 4-(3-((4-(2-hydroxyethyl)piperazin-1-yl)carbonyl)benzyl)-5,6,7,8-tetrahydrophthalazin-1(2H)-one]",8
9,"O=C(c1cccc(Cc2n[nH]c(=O)c3c2CCCC3)c1)N1CCN(c2ccccc2)CC1 [Example 440, 4-(3-((4-phenylpiperazin-1-yl)carbonyl)benzyl)-5,6,7,8-tetrahydrophthalazin-1(2H)-one]",3
10,"O=C(c1cccc(Cc2n[nH]c(=O)c3c2CCCC3)c1)N1CCN(c2ccccn2)CC1 [Example 441, 4-(3-((4-pyridin-2-ylpiperazin-1-yl)carbonyl)benzyl)-5,6,7,8-tetrahydrophthalazin-1(2H)-one]",3
11,"O=C(c1cccc(Cc2n[nH]c(=O)c3c2CCCC3)c1)N1CCN(c2ncccn2)CC1 [Example 442, 4-(3-((4-pyrimidin-2-ylpiperazin-1-yl)carbonyl)benzyl)-5,6,7,8-tetrahydrophthalazin-1(2H)-one]",0.8
12,"O=C(c1cccc(Cc2n[nH]c(=O)c3c2CCCC3)c1)N1CCN(CCOCCO)CC1 [Example 443, 4-(3-((4-(2-(2-hydroxyethoxy)ethyl)piperazin-1-yl)carbonyl)benzyl)-5,6,7,8-tetrahydrophthalazin-1(2H)-one]",16
13,"O=C(c1cccc(Cc2n[nH]c(=O)c3c2CCCC3)c1)N1CCN(c2ccccc2F)CC1 [Example 444, 4-(3-((4-(2-fluorophenyl)piperazin-1-yl)carbonyl)benzyl)-5,6,7,8-tetrahydrophthalazin-1(2H)-one]",4
14,"O=C(c1cccc(Cc2n[nH]c(=O)c3c2CCCC3)c1)N1CCN(c2ccc(F)cc2)CC1 [Example 445, 4-(3-((4-(4-fluorophenyl)piperazin-1-yl)carbonyl)benzyl)-5,6,7,8-tetrahydrophthalazin-1(2H)-one]",6
15,"O=C(c1cccc(Cc2n[nH]c(=O)c3c2CCCC3)c1)N1CCN(c2ccccc2Cl)CC1 [Example 446, 4-(3-((4-(2-chlorophenyl)piperazin-1-yl)carbonyl)benzyl)-5,6,7,8-tetrahydrophthalazin-1(2H)-one]",10
16,"CN1CCCN(C(=O)c2cccc(Cc3n[nH]c(=O)c4c3CCCC4)c2)CC1 [Example 447, 4-(3-((4-methyl-1,4-diazepan-1-yl)carbonyl)benzyl)-5,6,7,8-tetrahydrophthalazin-1(2H)-one]",10
17,O=c1[nH]nc(Cc2ccc(F)c(N3CCCCS3(=O)=O)c2)c2c1CCCC2 [Example 448],694
18,"O=C1CCN1c1cc(Cc2n[nH]c(=O)c3cccnc23)ccc1F [Example 449, 8-(4-fluoro-3-(2-oxoazetidin-1-yl)benzyl)pyrido(2,3-d)pyridazin-5(6H)-one]",103
19,"O=c1[nH]nc(Cc2ccc(F)c(Cl)c2)c2c1CCCN2 [Example 450, 8-(3-chloro-4-fluorobenzyl)-2,3,4,6-tetrahydropyrido(2,3-d)pyridazin-5(1H)-one]",122

row,SMILES,Ki [nM]
1,"CC(c1ccc(F)c(N2CCC2=O)c1)c1n[nH]c(=O)c2c1CCCC2 (centres unmarked) [Example 451, 4-(1-(4-fluoro-3-(2-oxoazetidin-1-yl)phenyl)ethyl)-5,6,7,8-tetrahydrophthalazin-1(2H)-one]",56
2,"O=C(CN1CCCC1=O)Nc1cc(Cc2n[nH]c(=O)c3c2CCCC3)ccc1F [Example 453, N-(2-fluoro-5-((4-oxo-3,4,5,6,7,8-hexahydrophthalazin-1-yl)methyl)phenyl)-2-(2-oxopyrrolidin-1-yl)acetamide]",14
3,"Cc1c(C(=O)Nc2cc(Cc3n[nH]c(=O)c4c3CCCC4)ccc2F)cnn1-c1ccccc1 [Example 454, N-(2-fluoro-5-((4-oxo-3,4,5,6,7,8-hexahydrophthalazin-1-yl)methyl)phenyl)-5-methyl-1-phenyl-1H-pyrazole-4-carboxamide]",16
4,"CC(=O)CCCC(=O)Nc1cc(Cc2n[nH]c(=O)c3c2CCCC3)ccc1F [Example 455, N-(2-fluoro-5-((4-oxo-3,4,5,6,7,8-hexahydrophthalazin-1-yl)methyl)phenyl)-5-oxohexanamide]",1.3
5,"COCCC(=O)Nc1cc(Cc2n[nH]c(=O)c3c2CCCC3)ccc1F [Example 456, N-(2-fluoro-5-((4-oxo-3,4,5,6,7,8-hexahydrophthalazin-1-yl)methyl)phenyl)-3-methoxypropanamide]",5
6,"O=C(CCCC(=O)Nc1cc(Cc2n[nH]c(=O)c3c2CCCC3)ccc1F)Nc1ccccc1 [Example 457, N-(2-fluoro-5-((4-oxo-3,4,5,6,7,8-hexahydrophthalazin-1-yl)methyl)phenyl)-N′-phenylpentanediamide]",0.7
7,"Nc1cc(Cc2n[nH]c(=O)c3cccnc23)ccc1F [Example 463, 8-(3-amino-4-fluorobenzyl)pyrido(2,3-d)pyridazin-5(6H)-one]",1880
8,"COC(=O)c1cc(Cc2n[nH]c(=O)c3c2NCCC3)ccc1F [Example 465, methyl 2-fluoro-5-((5-oxo-1,2,3,4,5,6-hexahydropyrido(2,3-d)pyridazin-8-yl)methyl)benzoate]",3.5
9,"O=C(O)c1cc(Cc2n[nH]c(=O)c3c2NCCC3)ccc1F [Example 468, 2-fluoro-5-((5-oxo-1,2,3,4,5,6-hexahydropyrido(2,3-d)pyridazin-8-yl)methyl)benzoic acid]",249
10,"O=C(NC1CCC1)c1cc(Cc2n[nH]c(=O)c3c2NCCC3)ccc1F [Example 471, N-cyclobutyl-2-fluoro-5-((5-oxo-1,2,3,4,5,6-hexahydropyrido(2,3-d)pyridazin-8-yl)methyl)benzamide]",51
11,"O=C(CCOc1ccccc1)Nc1cc(Cc2n[nH]c(=O)c3c2NCCC3)ccc1F [Example 478, N-(2-fluoro-5-((5-oxo-1,2,3,4,5,6-hexahydropyrido(2,3-d)pyridazin-8-yl)methyl)phenyl)-3-phenoxypropanamide]",2
12,"O=C(COc1ccc(OCc2ccccc2)cc1)Nc1cc(Cc2n[nH]c(=O)c3c2NCCC3)ccc1F [Example 481, 2-(4-(benzyloxy)phenoxy)-N-(2-fluoro-5-((5-oxo-1,2,3,4,5,6-hexahydropyrido(2,3-d)pyridazin-8-yl)methyl)phenyl)acetamide]",12
13,"CCOCCN1CCN(C(=O)c2cc(Cc3n[nH]c(=O)c4c3NCCC4)ccc2F)CC1 [Example 485, 8-(3-((4-(2-ethoxyethyl)piperazin-1-yl)carbonyl)-4-fluorobenzyl)-2,3,4,6-tetrahydropyrido(2,3-d)pyridazin-5(1H)-one]",14
14,"O=C(NCCN1CCCCC1)c1cc(Cc2n[nH]c(=O)c3c2NCCC3)ccc1F [Example 486, 2-fluoro-5-((5-oxo-1,2,3,4,5,6-hexahydropyrido(2,3-d)pyridazin-8-yl)methyl)-N-(2-piperidin-1-ylethyl)benzamide]",15
15,"O=C(NCC(=O)N1CCCCC1)c1cc(Cc2n[nH]c(=O)c3c2NCCC3)ccc1F [Example 487, 2-fluoro-5-((5-oxo-1,2,3,4,5,6-hexahydropyrido(3,2-d)pyridazin-8-yl)methyl)-N-(2-oxo-2-(piperidin-1-yl)ethyl)benzamide]",10
16,"O=C(c1cc(Cc2n[nH]c(=O)c3c2CCCC3)ccc1F)N1CCN(c2ncccn2)CC1 [Example 490, 4-(4-fluoro-3-((4-pyrimidin-2-ylpiperazin-1-yl)carbonyl)benzyl)-5,6,7,8-tetrahydrophthalazin-1(2H)-one]",0.7
17,"O=C1CCCN1c1cc(-c2n[nH]c(=O)c3c2CCCC3)ccc1F [Example 491, 4-(4-fluoro-3-(2-oxopyrrolidin-1-yl)phenyl)-5,6,7,8-tetrahydrophthalazin-1(2H)-one]",191
18,"CN(C)C(=O)N1CCN(C(=O)c2cc(Cc3n[nH]c(=O)c4c3CCCC4)ccc2F)CC1 [Example 494, 4-{2-fluoro-5-[(4-oxo-3,4,5,6,7,8-hexahydrophthalazin-1-yl)methyl]benzoyl}-N,N-dimethylpiperazine-1-carboxamide]",0.9
